In patent publication US6534524B1, “Indazole compounds and pharmaceutical compositions for inhibiting protein kinases, and methods for their use” (Agouron Pharmaceuticals, Inc., priority 1999, dated 2003):
Read-outs that look alike come from different tables or passages of the source.

What was measured:
LCK tyrosine kinase = target: T1, LCK tyrosine kinase (Homo sapiens, UniProt P06239, C224D/P223M); assay: LCK spectrophotometric assay; type: biochemical; settings: Table 1; read-out: Lck-P Ki
T1 construct: starting from amino acid residue 223 to the end of the protein at residue 509; made in house; host or cells: insect cells
T1 sequence (P06239 223-509 P223M/C224D): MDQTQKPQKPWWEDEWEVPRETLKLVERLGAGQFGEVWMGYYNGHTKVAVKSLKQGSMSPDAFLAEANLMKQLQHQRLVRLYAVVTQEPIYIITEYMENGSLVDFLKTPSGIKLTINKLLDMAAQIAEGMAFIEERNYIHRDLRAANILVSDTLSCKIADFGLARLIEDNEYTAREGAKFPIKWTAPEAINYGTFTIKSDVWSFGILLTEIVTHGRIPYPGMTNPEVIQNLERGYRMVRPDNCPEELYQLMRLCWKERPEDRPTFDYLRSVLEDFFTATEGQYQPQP

human CHK1 (FL-CHK1) = target: T2, human CHK1 (FL-CHK1) (Homo sapiens, UniProt O14757); assay: CHK1 assay (coupled spectrophotometric, Syntide-2); type: biochemical; settings: read-out: CHK-1 Ki
T2 construct: C-terminally His-tagged full-length human CHK1 (FL-CHK1); made in house; host or cells: baculovirus/insect cell system
T2 sequence (O14757 1-476): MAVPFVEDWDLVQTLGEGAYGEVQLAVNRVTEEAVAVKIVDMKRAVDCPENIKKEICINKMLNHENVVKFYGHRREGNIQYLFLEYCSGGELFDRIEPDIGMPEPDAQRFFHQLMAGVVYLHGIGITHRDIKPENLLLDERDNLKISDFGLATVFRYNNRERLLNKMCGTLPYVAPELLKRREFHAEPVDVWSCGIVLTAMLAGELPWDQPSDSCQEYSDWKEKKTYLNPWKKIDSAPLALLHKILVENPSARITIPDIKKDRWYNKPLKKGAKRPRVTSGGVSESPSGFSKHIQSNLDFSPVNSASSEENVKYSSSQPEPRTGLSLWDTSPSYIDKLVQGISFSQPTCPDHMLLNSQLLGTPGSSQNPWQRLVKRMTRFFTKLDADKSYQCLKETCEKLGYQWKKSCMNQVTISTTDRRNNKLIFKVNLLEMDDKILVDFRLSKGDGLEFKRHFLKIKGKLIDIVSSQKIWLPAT
In short: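 Full-length C-terminally His-tagged human CHK1 expressed in baculovirus/insect cells, used at 10 nM with Syntide-2 substrate. ADP formation coupled via PK/LDH to NADH oxidation, followed as absorbance decrease at 340 nm. Ki from initial rates at varying compound concentrations.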

CDK2/Cyclin A = CDK2/Cyclin A (Homo sapiens, UniProt P24941); assay: CDK2/Cyclin A assay ([32P]ATP, Rb fragment); type: biochemical; settings: Table 1
Mouse PK assay = type: in vivo; settings: female, B6, plasma, oral
Method: Mouse PK Assay The pharmacolinetics (e.g., absorption and elimination) of drugs in mice were analyzed using the following experiment. […] This was administered orally (p.o.) and intraperitoneally (i.p.) at variable doses to two distinct groups (n=4) of B6 female mice. Blood samples were collected via an orbital bleed at time points: 0 hour (pre-dose), 0.5 h, 1.0 h, 2.0 h, and 4.0 h, and 7.0 h post dose. Plasma was obtained from each sample by centrifugation at 2500 rpm for 5 min. Test compound was extracted from the plasma by an organic protein precipitation method. For each time bleed 50 μL of plasma was combined with 1.0 mL of acetonitrile, vortexed for 2 min. and then spun at 4000 rpm for 15 min. to precipitate the protein and extract out the test compound. Next, the acetonitrile supernatant (the extract containing test compound) was poured into new test tubes and evaporated on a hot plate (25° C.) under a steam of N2 gas. […] Test-compound plasma concentrations (μg/mL) were determined by a comparison to standard curve (peak area vs. conc. μg/mL) using known concentrations of test compound extracted from plasma samples in the manner described above. […] The quantitated test samples were plotted for visual display using Kalidagraph software and their pharmacokinetic parameters were determined using WIN NONLIN software.

[1] = Human liver microsome (HLM) assay; type: in vitro ADME; settings: human liver microsomes, 5 μM test compound
In short: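 Compound metabolism in human liver microsomes measured in triplicate. Samples at 0 and 2 h centrifuged at 14000 g for 10 min and analysed by LC-MS.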

[2] = Determination of inhibitor concentration in mouse plasma after intraperitoneal and oral dosing; type: in vivo; settings: IP, 50 mg/kg, vehicle PEG400:H2O pH 2.3 30:70
In short: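 Mice dosed intraperitoneally or orally; blood taken by ocular bleed at 0.5, 1 and 4 h and by intracardiac puncture at 7 h. Plasma extracted with ethyl acetate after internal standard and NaOH addition, analysed by HPLC or LC-MS against a mouse-plasma standard curve.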

human FGF-R1 = human FGF-R1 (Homo sapiens, UniProt P11362, C488A/C584S/L457V); assay: FGF-R spectrophotometric assay
human FGF-R1, sequence (P11362 456-766 L457V/C488A/C584S): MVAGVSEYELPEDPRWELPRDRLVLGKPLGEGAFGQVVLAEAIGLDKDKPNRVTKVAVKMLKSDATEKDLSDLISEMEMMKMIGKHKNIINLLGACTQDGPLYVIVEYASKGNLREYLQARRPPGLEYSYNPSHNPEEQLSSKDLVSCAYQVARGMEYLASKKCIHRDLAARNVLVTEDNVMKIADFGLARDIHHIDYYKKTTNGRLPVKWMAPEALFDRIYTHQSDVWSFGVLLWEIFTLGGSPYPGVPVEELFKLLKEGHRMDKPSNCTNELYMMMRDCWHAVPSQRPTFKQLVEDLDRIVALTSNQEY

CDK4/Cyclin D3 complex = CDK4/Cyclin D3 complex (Homo sapiens, UniProt P11802); assay: CDK4/Cyclin D assay ([32P]ATP, Rb fragment)
CDK4/Cyclin D3 complex, sequence (P11802 whole entry, the tested form may be a part): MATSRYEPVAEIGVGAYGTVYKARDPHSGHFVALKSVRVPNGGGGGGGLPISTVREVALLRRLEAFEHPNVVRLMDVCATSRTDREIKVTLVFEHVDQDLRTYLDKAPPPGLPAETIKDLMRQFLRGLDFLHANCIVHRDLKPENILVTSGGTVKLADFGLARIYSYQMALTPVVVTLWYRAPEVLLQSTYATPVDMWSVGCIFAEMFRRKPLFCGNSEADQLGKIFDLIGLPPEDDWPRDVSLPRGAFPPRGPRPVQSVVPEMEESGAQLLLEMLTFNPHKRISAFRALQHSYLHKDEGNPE
CDK4/Cyclin D3 complex, sequence (P30281 whole entry partner, the tested form may be a part): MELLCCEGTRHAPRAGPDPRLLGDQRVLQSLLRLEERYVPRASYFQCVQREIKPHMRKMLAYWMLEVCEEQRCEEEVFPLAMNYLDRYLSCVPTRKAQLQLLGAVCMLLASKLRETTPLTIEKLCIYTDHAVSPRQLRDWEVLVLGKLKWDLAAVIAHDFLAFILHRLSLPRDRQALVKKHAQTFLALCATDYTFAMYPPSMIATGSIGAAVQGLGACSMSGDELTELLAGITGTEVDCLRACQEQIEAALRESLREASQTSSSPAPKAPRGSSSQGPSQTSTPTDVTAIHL

[3] = target: unphosphorylated VEGF-R2Δ50 (FLVK) (Homo sapiens, UniProt P35968, DEL940-989/E990V); assay: VEGF-R2 coupled spectrophotometric assay, unphosphorylated VEGF-R2Δ50 (FLVK)
unphosphorylated VEGF-R2Δ50 (FLVK), sequence (P35968 with tags, fused parts or gaps DEL940-989/E990V limits assumed): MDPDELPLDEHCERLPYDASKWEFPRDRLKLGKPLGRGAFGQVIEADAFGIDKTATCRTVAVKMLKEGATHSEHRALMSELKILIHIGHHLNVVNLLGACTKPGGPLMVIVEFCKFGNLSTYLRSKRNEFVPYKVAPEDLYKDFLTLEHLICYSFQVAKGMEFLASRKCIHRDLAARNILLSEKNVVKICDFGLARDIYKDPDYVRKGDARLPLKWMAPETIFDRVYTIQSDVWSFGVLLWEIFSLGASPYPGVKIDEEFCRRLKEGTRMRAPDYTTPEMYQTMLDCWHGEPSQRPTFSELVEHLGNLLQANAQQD

[4] = target: phosphorylated VEGF-R2Δ50 (FLVK-P) (Homo sapiens, UniProt P35968, DEL940-989/E990V); assay: VEGF-R2 coupled spectrophotometric assay, phosphorylated VEGF-R2Δ50 (FLVK-P)
phosphorylated VEGF-R2Δ50 (FLVK-P), sequence (P35968 with tags, fused parts or gaps DEL940-989/E990V limits assumed): as above

[5] = Isomerization under assay conditions; type: physicochemical; settings: Z-isomer
Method: Example 33(h) was prepared in the same reaction as Example 33(d). […] Found: C, (66.36), H, (4.08), N, (11.49), S, (6.55).

CDK1 = CDK1 (Homo sapiens, UniProt P06493); assay: CDK1 inhibition; type: biochemical; settings: Table 3
CDK1, sequence (P06493 whole entry, species assumed, the tested form may be a part): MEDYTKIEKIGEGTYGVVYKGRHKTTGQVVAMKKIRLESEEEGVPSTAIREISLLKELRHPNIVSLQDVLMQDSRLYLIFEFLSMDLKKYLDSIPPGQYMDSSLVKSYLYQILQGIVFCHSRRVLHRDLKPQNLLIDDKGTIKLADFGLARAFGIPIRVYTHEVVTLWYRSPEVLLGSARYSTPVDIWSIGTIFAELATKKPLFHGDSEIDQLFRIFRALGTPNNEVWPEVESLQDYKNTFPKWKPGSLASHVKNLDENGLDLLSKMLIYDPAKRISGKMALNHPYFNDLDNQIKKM
CDK1, sequence (P14635 whole entry partner, species assumed, the tested form may be a part): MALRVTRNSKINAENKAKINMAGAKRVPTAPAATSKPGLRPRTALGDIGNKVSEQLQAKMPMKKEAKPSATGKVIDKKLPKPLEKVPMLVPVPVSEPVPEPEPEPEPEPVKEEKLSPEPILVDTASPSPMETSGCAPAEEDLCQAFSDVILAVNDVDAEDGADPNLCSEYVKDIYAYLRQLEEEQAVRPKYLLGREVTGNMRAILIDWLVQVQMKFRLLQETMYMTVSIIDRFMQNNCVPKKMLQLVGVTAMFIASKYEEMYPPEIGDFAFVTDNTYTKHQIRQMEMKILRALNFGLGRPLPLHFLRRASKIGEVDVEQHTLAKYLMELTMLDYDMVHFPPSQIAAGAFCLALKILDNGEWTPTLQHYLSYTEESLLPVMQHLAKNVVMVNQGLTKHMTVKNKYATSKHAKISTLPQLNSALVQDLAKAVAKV

[6] = target: T3, phosphorylase kinase (truncated catalytic gamma subunit) (Oryctolagus cuniculus, UniProt P00518); assay: Phosphorylase kinase assay; type: biochemical; settings: 10 μM of compound
T3 construct: (gamma subunit) of phosphorylase kinase (amino acids 1-298); made in house
T3 sequence (P00518 2-299 limits assumed): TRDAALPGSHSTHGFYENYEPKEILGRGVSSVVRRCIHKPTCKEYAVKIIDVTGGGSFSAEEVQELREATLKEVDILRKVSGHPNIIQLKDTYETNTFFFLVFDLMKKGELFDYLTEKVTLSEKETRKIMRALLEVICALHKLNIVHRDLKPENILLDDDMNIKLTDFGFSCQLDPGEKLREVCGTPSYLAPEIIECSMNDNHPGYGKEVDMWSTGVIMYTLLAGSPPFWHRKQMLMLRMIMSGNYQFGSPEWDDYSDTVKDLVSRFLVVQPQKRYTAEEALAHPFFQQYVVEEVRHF
Method: Phosphorylase Kinase Assay. In the assay, the purified catalytic subunit is used to phosphorylate phosphorylase b using radiolabled ATP. Briefly, 1.5 mg/ml of phosphorylase b is incubated with 10 nM phosphorylase kinase in 10 Mm MgCl2, 50 mM Hepes pH 7.4, at 37° C. […] The reaction was terminated and proteins were precipitated by the addition of TCA to 10% final concentration. […] The filter plate was then extensively washed with 20% TCA, and dried. Scintilation fluid was then added to the plate and incorporated radiolabel was counted on a Wallac microbeta counter.

COc1cc(-c2ccc3c(/C=C/c4ccc(OC)c(OC)c4)n[nH]c3c2)ccc1O [Example 1(a), 3-[E-2-(3,4-Dimethoxy-phenyl)vinyl]-6-(3-methoxy-4-hydroxy-phenyl)-1H-indazole]
Ki (LCK tyrosine kinase): 88 nM | Ki (human CHK1 (FL-CHK1); Table 1): 5.2 nM | Ki (CDK2/Cyclin A): 19 nM | AUC (Mouse PK assay): 330 ng·h/mL | % remain (HLM, 2 h) [1]: 98% | AUClast [2]: 691 ng·h/mL | Cmax [2]: 283 ng/mL | plasma half-life (T1/2) [2]: 2.4 h | Ki (human FGF-R1): 27 nM | Ki (CDK4/Cyclin D3 complex): 13 nM | Ki ([3]; FLVK Ki, Table 1): 0.3 nM | Ki [4]: 2 nM

O=C(Nc1cccc(Cl)c1)c1ccccc1Sc1ccc2c(/C=C\c3ccccn3)n[nH]c2c1 [Example 33(h), 6-[2-(3-Chlorophenylcarbamoyl)phenylsulfanyl]-3-Z-[2-(pyridin-2-yl)ethenyl]-1H-indazole]
Isomerization under assay conditions [5]: found to isomerize to Example 33(d) under assay conditions

C(=C\c1n[nH]c2cc(-c3ccnc4[nH]ccc34)ccc12)/c1ccccc1 [Example 52(b), 6-(7-Azaindol-4-yl)-3-E-styryl-1H-indazole]
Ki (human CHK1 (FL-CHK1); Table 3): 80 nM | Ki (CDK1): 41 nM | inhibition at 10 µM [6]: 92% | inhibition at 1 µM ([3]; read-out: FLVK % inhibition): 94%
